Counter-ions that a name gives are not always drawn. Like-named read-outs stand apart in the source and are kept apart here.
Legend:
C6/36 cells = format: cell-based, Ae. albopictus
Vero cells = assay: Cell viability (CellTiter-Glo) of Vero cells; format: cell-based
ZIKV SPH = assay: Autophagy compound library screen, ZIKV SPH titer (TCID50) in C6/36 cells; format: cell-based, Zika virus; details: Zika virus, C6/36; 10 µM compound, MOI 0.1, 96 h, TCID50; ± SEM, three independent trials; read-out: ZIKV SPH Relative Titer in C6/36 Cells
[1] = 10 µM compound, 96 h, CellTiter-Glo, ± SEM, three independent trials
[2] = 10 µM compound, 40 h, CellTiter-Glo, ± SEM, three independent trials

Row | Structure (SMILES) | C6/36 Viability (C6/36 cells; [1]) | Vero Viability (Vero cells; 10 µM) | activity at 10 µM (ZIKV SPH) | Vero Viability (Vero cells; [2]) | C6/36 Viability (C6/36 cells; 10 µM)
1 | Nc1cc(N2CCCCC2)nc(N)[n+]1[O-] [Minoxidil] | 72 ± 2.6% of untreated control | 96.3 ± 3.2% of untreated control | 146 ± 16.6% |  | 
2 | CN[C@@H]1C[C@H]2O[C@@](C)([C@@H]1OC)n1c3ccccc3c3c4c(c5c6ccccc6n2c5c31)C(=O)NC4 [Staurosporine] | 16 ± 5.3% of untreated control |  | 0% | 14.0 ± 1.5% of untreated control | 
3 | CC(C)Cn1cnc2c(N)nc3ccccc3c21 [Imiquimod] | 37 ± 8.1% of untreated control |  | 72.5 ± 18.4% | 91.3 ± 1.2% of untreated control | 
4 | CC(=O)c1c(O)c(C)c(O)c(Cc2c(O)c3c(c(C(=O)/C=C/c4ccccc4)c2O)OC(C)(C)C=C3)c1O [Rottlerin] | 40 ± 8.4% of untreated control |  | 30.3 ± 16.9% | 80.7 ± 8.5% of untreated control | 
5 | CO/C1=C\C(C)=C\[C@@H](C)[C@@H](O)[C@@H](C)C/C(C)=C/C=C/[C@H](OC)[C@@H]([C@@H](C)[C@@H](O)[C@H](C)[C@@]2(O)C[C@@H](O)[C@H](C)[C@@H](C(C)C)O2)OC1=O [Bafilomycin A1] | 36 ± 6.1% of untreated control |  | 0% | 55.7 ± 9.5% of untreated control | 
6 | CCOC(=O)C1=C(C)NC(C)=C(C(=O)OC)C1c1cccc([N+](=O)[O-])c1 (centres unmarked) [Nitrendipine] | 62 ± 10.5% of untreated control |  | 220 ± 44.4% | 88.7 ± 1.9% of untreated control | 
7 | O=C(/C=C/c1cccnc1)NCCCCC1CCN(C(=O)c2ccccc2)CC1 [FK-866] |  | 32.7 ± 2.7% of untreated control | 92.7 ± 32.4% |  | 48 ± 5.5% of untreated control
8 | COC1=C2C[C@@H](C)C[C@H](OC)[C@H](O)[C@@H](C)/C=C(\C)[C@H](OC(N)=O)[C@@H](OC)/C=C\C=C(/C)C(=O)NC(=CC1=O)C2=O [Geldanamycin] | 45 ± 5.8% of untreated control | 61.3 ± 5.7% of untreated control | 25.8 ± 14.5% |  | 
9 | Cn1cc(C2=C(c3ccc(Cl)cc3Cl)C(=O)NC2=O)c2ccccc21 [SB-216763] | 63 ± 3.6% of untreated control | 80.0 ± 9% of untreated control | 54 ± 21.7% |  | 
10 | C=C[C@@]1(C)CC(=O)[C@]2(O)[C@@]3(C)[C@@H](O)CCC(C)(C)[C@@H]3[C@H](O)[C@H](OC(C)=O)[C@@]2(C)O1 [Forskolin] |  | 74.7 ± 3.7% of untreated control | 302 ± 18.3% |  | 94 ± 12% of untreated control
11 | Cc1ccc(S(=O)(=O)NC(=O)NN2CCCCCC2)cc1 [Tolazamide] | 113 ± 7.3% of untreated control | 99.0 ± 1.5% of untreated control | 120 ± 33.7% |  | 
12 | N[C@H]1C(O)O[C@H](CO)[C@@H](O)[C@@H]1O (some centres unmarked) [Glucosamine HCl] | 88 ± 5.2% of untreated control | 99.3 ± 1.9% of untreated control | 242 ± 45.8% |  | 
13 | Cn1c(=O)c2c(ncn2C)n(C)c1=O [Caffeine] | 83 ± 4.6% of untreated control |  | 138 ± 37.7% | 104.7 ± 8.6% of untreated control | 
14 | O=c1[nH]c2ccccc2n1C1CCN(CCCC(c2ccc(F)cc2)c2ccc(F)cc2)CC1 [Pimozide] | 49 ± 3.6% of untreated control | 90.0 ± 5.7% of untreated control | 109 ± 22% |  | 
15 | O=C(Nc1ccc([N+](=O)[O-])cc1Cl)c1cc(Cl)ccc1O [Niclosamide] | 2 ± 0.3% of untreated control | 29.7 ± 3.8% of untreated control | 0.1% |  | 
16 | c1ccc2c(-c3ccncc3)c[nH]c2c1 [Rockout] |  | 87.7 ± 3.8% of untreated control | 96.2 ± 44.2% |  | 76 ± 5.2% of untreated control
17 | O=c1cc(N2CCOCC2)oc2c(-c3ccccc3)cccc12 [LY294002] | 97 ± 17.2% of untreated control |  | 548 ± 221% | 56.0 ± 6% of untreated control | 
18 | CN(C)C(=N)N=C(N)N [Metformin·HCl] | 64 ± 10.3% of untreated control | 92.3 ± 4.2% of untreated control |  |  | 
19 | CCN(CC)CCCC(C)Nc1ccnc2cc(Cl)ccc12 (centres unmarked) [Chloroquine] | 81 ± 17.1% of untreated control |  | 126 ± 44.8% | 89.7 ± 4.4% of untreated control | 
20 | CCCCC[C@H](O)CC(=O)CCc1ccc(O)c(OC)c1 [Compound 6-Gingerol, 6-Gingerol] | 55 ± 11% of untreated control | 100.0 ± 2.5% of untreated control | 109 ± 9.3% |  | 

Reference: article PMC6356585 (Viruses, 2018)
